Data set [1] addresses Glycogen synthase kinase 3β. To be noted: cited from earlier work; for Inhibition Mode / IC50: reference controls; for IC50: read-out: IC50, GSK-3β inhibition.
In data set [2] the target is T1, human recombinant GSK-3β (Homo sapiens, UniProt P49841).
T1 construct: purchased ProSpec-Tany TechnoGene Ltd., Ness-Ziona, Israel
The data set is described as follows: GSK-3β enzyme inhibition assay (Kinase-Glo luminescent kinase assay). It is filed as biochemical. Conditions: pure compounds, mean ± SEM of triplicate experiments. For orientation: Kinase-Glo reads ATP consumption through a luciferase reaction.
Description: The enzymatic inhibition of GSK-3β in vitro was evaluated with human recombinant GSK-3β by using a Kinase-Glo reagent kit, according to Baki et al. [52] with a slight modification. The kinase reaction was performed in 384-well black plates. Test concentrations were prepared through serial dilution by using an assay buffer (pH 7.5) containing 50 mM HEPES, 1 mM EDTA, 1 mM EGTA, and 15 mM magnesium acetate. To initiate the reaction, 5 µL of sample, 5 µL of ATP (1 µM final concentration), 5 µL of 50 µM GSM, and 5 µL of 20 ng GSK-3β were mixed simultaneously in each well (the final DMSO concentration in the reaction mixture was less than 5%). Test samples were replaced by 5 µL of either buffer or luteolin to produce positive control (maximum activity) and negative control (total inhibition) samples. The reaction mixture was incubated at 37 °C for 30 min and was followed by the addition of the 20-µL Kinase-Glo reagent to stop the reaction. Glow-type luminescence was recorded after 10 min. The activity was proportional to the difference between total and consumed ATP. Inhibition activities were calculated on the basis of maximal activity, measured in the absence of the inhibitor, and the maximal inhibition was measured in the presence of the reference compound.

The subject of another data set is PC12 cells. On the set-up: method as in PMID 19101570. Conditions: 20 µg/mL; cited from earlier work.
The subject of a further data set is BACE1. On the set-up: method as in PMID 29679864. To be noted: cited from earlier work.
Details of data set [3]: method as in PMID 15484228, PMID 16905282. To be noted: oral administration; cited from earlier work.
For data set [4], the system named is induced pluripotent stem cells (iPSCs). Also noted: method as in PMID 29421539. To be noted: via the AKT/GSK-3β signaling pathway; cited from earlier work.
Another data set relates to SH-SY5Y-APPsw cells. On the set-up: method as in PMID 27258307. Conditions: by modulating BACE1 activity; cited from earlier work.
The target in data set [5] is T1, human recombinant GSK-3β. Description: GSK-3β enzyme kinetics (Lineweaver–Burk and secondary plots, varying ATP or GSM substrate). The data set is classed as biochemical. To be noted: for Ki: from secondary plots; for Inhibition Mode: Lineweaver–Burk plots. The protocol:
The mode of GSK-3β enzyme inhibition by Sal B was characterized via kinetic study by using various concentrations of GSM substrate and ATP. Lineweaver–Burk plots showing reciprocal rates versus reciprocal GSM substrate/ATP concentrations (Figure 3) were deployed to explore the GSK-3β inhibition mechanism.
The GSK-3β enzyme kinetics was evaluated by using the assay method described in Section 4.4 with varying concentrations of ATP (2 µM, 1 µM, or 0.5 µM) or substrate (50 µM, 25 µM, or 12.5 µM). A Lineweaver–Burk plot was prepared by using double reciprocal plots of enzyme kinetic data. Ki values were calculated from the secondary plots.

Details of data set [6]: method as in PMID 29027831. To be noted: nasal administration in rats, cited from earlier work.
On the set-up of data set [7]: method as in PMID 21903108. To be noted: induced by scopolamine or Aβ25–35; cited from earlier work.
Setting [8] is: read-out: IC50 (Mean ± SEM), GSK-3β inhibition.
The mark [9] stands for this setting: IC50 (Mean ± SEM), GSK-3β inhibition.

The text below walks through data of paper PMC6278281, “Rosmarinic Acid Derivatives’ Inhibition of Glycogen Synthase Kinase-3β Is the Pharmacological Basis of Kangen-Karyu in Alzheimer’s Disease” (Molecules, 2018).

“And” between values parts separate entries of the source, which are not always exact repeats. Equal entries are not always repeated. Where two headings read alike, the source gives them in different places.

T1 sequence (P49841 whole entry): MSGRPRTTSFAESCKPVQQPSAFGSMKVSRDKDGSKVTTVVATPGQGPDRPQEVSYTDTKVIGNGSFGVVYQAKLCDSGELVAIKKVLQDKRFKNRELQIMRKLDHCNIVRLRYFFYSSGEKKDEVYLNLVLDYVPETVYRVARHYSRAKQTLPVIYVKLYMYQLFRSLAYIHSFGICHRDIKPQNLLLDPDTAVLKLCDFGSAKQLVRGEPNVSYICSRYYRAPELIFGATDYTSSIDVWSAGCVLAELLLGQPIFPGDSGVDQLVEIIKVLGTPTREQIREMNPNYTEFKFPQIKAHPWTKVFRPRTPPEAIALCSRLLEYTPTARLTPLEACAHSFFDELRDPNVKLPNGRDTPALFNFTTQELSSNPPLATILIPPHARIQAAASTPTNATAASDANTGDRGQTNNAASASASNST

Consider `COc1ccc(CNC(=O)Nc2ncc([N+](=O)[O-])s2)cc1` [AR-A014418], for which the Ki – broadly, a measure of affinity in units of concentration, obtained from inhibition or displacement – in [1] (reference control) was 0.03 µM. In [1], the “Inhibition Mode” value is “ATP-competitive [30]” and the half-maximal inhibitory concentration (IC50) (in general, the concentration that gives 50% inhibition) was 0.1 µM.

As to `O=C1Cc2c([nH]c3ccc([N+](=O)[O-])cc23)-c2ccccc2N1` [Alsterpaullone], in [1], the “Inhibition Mode” value was “ATP-competitive [31]” and the IC50 is 0.004 µM.

With `O=C(O)/C=C/c1ccc(O)c(O)c1` [Caffeic acid], the IC50 on human recombinant GSK-3β [2] (setting [8]) was found to be 425 ± 7.61 µM. Moreover, the “phosphorylation of GSK-3β and tau protein” value with PC12 cells is “decreases the phosphorylation of GSK-3β and tau protein”.

For the molecule `O=C1Nc2ccccc2/C1=C1/Nc2ccccc2C1=O` [Indirubin], in [1], the “Inhibition Mode” value was “ATP-competitive [32]” and the IC50 was 0.6 µM.

With `O=c1cc(-c2ccc(O)c(O)c2)oc2cc(O)cc(O)c12` [Luteolin, reference compound], the 50% inhibitory concentration (IC50) at human recombinant GSK-3β [2] (setting [9]) is 2.18 ± 0.13 µM.

As to `O=C(/C=C/c1ccc(O)c2c1[C@H](C(=O)O[C@H](Cc1ccc(O)c(O)c1)C(=O)O)[C@@H](c1ccc(O)c(O)c1)O2)O[C@H](Cc1ccc(O)c(O)c1)C(=O)O` [Magnesium lithospermate B], the BACE1 inhibitory activity result in the data set on BACE1 is “potent activity”. Further, on human recombinant GSK-3β [2] (setting [8]), the IC50 is ~30 µM and 33.1 µM.

On to `O=C(/C=C/c1ccc(O)c(O)c1)O[C@H](Cc1ccc(O)c(O)c1)C(=O)O` [Rosmarinic acid], for which the BACE1 inhibitory activity result with BACE1 is reported as “potent activity”. For the same molecule, the IC50 on human recombinant GSK-3β [2] (setting [8]) amounted to 135 ± 4.69 µM.

Take `O=C(/C=C/c1ccc(O)c(O)c1/C=C/c1ccc(O)c(O)c1)O[C@H](Cc1ccc(O)c(O)c1)C(=O)O` [Salvianolic acid A]: the BACE1 inhibitory activity entry in the data set with BACE1 is recorded as “potent activity”. Moreover, the IC50 at human recombinant GSK-3β [2] (setting [8]) was ~30 µM and 30.2 µM.

As to `O=C(C=Cc1ccc(O)c2c1C(C(=O)OC(Cc1ccc(O)c(O)c1)C(=O)O)C(c1ccc(O)c(O)c1)O2)OC(Cc1ccc(O)c(O)c1)C(=O)O` (stereo not drawn) [Salvianolic acid B], in [3], the “time to maximum plasma concentration” value is 0.5 to 1 h. In addition, the “time traceable after administration” value in data set [3] was “up to 180 min”. Also, in data set [4], the “proliferation and differentiation into neurons of iPSCs” value is recorded as “potently improved”. Besides, the Aβ generation entry with SH-SY5Y-APPsw cells is “inhibited Aβ generation”. Further, on human recombinant GSK-3β [2] (setting [9]), the half-inhibitory concentration (IC50) stood at 6.97 ± 0.96 µM. The Ki was determined as 5.44 µM on human recombinant GSK-3β [5] (ATP-competitive inhibition, constant GSM substrate (25 μM), varying ATP (0.5, 1, 2 μM)) and 6.32 µM at human recombinant GSK-3β [5] (muscle glycogen synthase (GSM)-competitive inhibition, constant ATP (1 μM), varying GSM substrate (12.5, 25, 50 μM)). The “Inhibition Mode” value was “ATP-competitive” at human recombinant GSK-3β [5]; “ATP-competitive and GSM substrate–competitive” at human recombinant GSK-3β [5] (listed as Sal B). In addition, in data set [6] (compared to intravenous and oral administration), the brain-targeting efficacy is given as 5.54. For the same molecule, the bioavailability (commonly the share of a dose that reaches the circulation, judged against a reference dose that is usually intravenous) in data set [6] was 43.98%. In [7], the cognitive impairments entry is recorded as “reverses cognitive impairments”.

As to `O=C(/C=C/c1ccc(O)c2oc(-c3ccc(O)c(O)c3)cc12)O[C@H](Cc1ccc(O)c(O)c1)C(=O)O` [Salvianolic acid C], in the data set with BACE1, the BACE1 inhibitory activity result is given as “potent activity”. For the same molecule, on human recombinant GSK-3β [2] (setting [8]), the IC50 is ~30 µM and 31.8 µM.
